The values below come from PMC7531004, “Discovery of gramicidin A analogues with altered activities by multidimensional screening of a one-bead-one-compound library” (Nature Communications, 2020).

Data set [1] in a line: H+/Na+ transport assay of bead-derived peptides (one-point).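 Note: relative to parent gramicidin A activity set to 1.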 It is filed as biochemical. Also on record: key: relative activity; mean of two control wells = 1.00. The conditions noted are these: bead-derived peptide solution, EYPC/EYPG LUVs. The gist of the method:
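Values are normalized fluorescence, with Triton X-100 defining 100% and untreated LUVs 0%, and the two control wells averaging 1.00. Vesicles carried 1.0 mM pyranine and included egg yolk phosphatidylglycerol. Peptides were incubated with them 30 min at room temperature.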

The test system of data set [2] is Streptococcus pyogenes SSI-9. Description: Antibacterial activity assay of bead-derived peptides (three concentrations). Type of data set: cell-based. Further details: key: +++: inhibition by the 640-fold diluted peptide solution; ++: inhibition by the 160-fold diluted solution; +: inhibition by the 40-fold diluted solution; -: no inhibition. The conditions noted are these: S. pyogenes, bead-derived peptide solution, three concentrations. The gist of the method:
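Library peptide stock applied undiluted, 4-fold and 16-fold diluted in DMSO to S. pyogenes SSI-9 (2 × 10^5 CFU) in cation-adjusted Mueller Hinton broth with 5% laked horse blood. After 18 h at 37 °C, growth judged by visible cell precipitation.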

Data set [3] has as its system P388 mouse leukemia cells. The conditions noted are these: 92 h. Put shortly:
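P388 cells at 1 × 10^4 cells/mL (final) were exposed to library peptides (stocks diluted 250-fold in RPMI1640/10% FBS) for 92 h at 37 °C, 5% CO2. Viable cells were counted by WST-1/1-methoxy PMS (4 h), absorbance 415 nm, and expressed as cell viability (%).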

Molecules are shown by their SMILES. Where a SMILES comes first, the peptide text is derived from it. [ ]: non-standard residue; d: D form. The star is where a group is joined. NHCH2CH2OH = OCCN*; For = O=C*

`CC(C)C[C@@H](NC(=O)[C@H](C)NC(=O)[C@H](NC(=O)[C@H](C)NC(=O)CNC(=O)[C@@H](NC=O)C(C)C)C(C)C)C(=O)N[C@H](C(=O)N[C@@H](C(=O)N[C@@H](Cc1c[nH]c2ccccc12)C(=O)N[C@H](CC(C)C)C(=O)N[C@@H](Cc1c[nH]c2ccccc12)C(=O)N[C@H](CC(C)C)C(=O)N[C@@H](Cc1c[nH]c2ccccc12)C(=O)N[C@H](CC(C)C)C(=O)N[C@@H](Cc1c[nH]c2ccccc12)C(=O)NCCO)C(C)C)C(C)C` [compound 9897] (For-VGA[dV]A[dL]V[dV]W[dL]W[dL]W[dL]W-NHCH2CH2OH): the “H+/Na+ transport activity normalized against the value of 1 (1.00)” value (from here on “H+/Na+ transport activity normalized”) in data set [1] turned out to be 1.04. The antibacterial activity entry in data set [2] is on record as “+”. In data set [3], this compound returned a cell viability/% of 8.1%.

Regarding `CC(C)C[C@@H](NC(=O)[C@H](Cc1c[nH]c2ccccc12)NC(=O)[C@H](NC(=O)[C@@H](NC(=O)[C@H](NC(=O)[C@H](C)NC(=O)[C@H](NC(=O)[C@H](C)NC(=O)CNC(=O)[C@@H](NC=O)C(C)C)C(C)C)C(C)C)C(C)C)[C@H](C)O)C(=O)N[C@@H](Cc1c[nH]c2ccccc12)C(=O)N[C@@H](C(=O)N[C@@H](Cc1c[nH]c2ccccc12)C(=O)N[C@@H](C(=O)N[C@@H](Cc1c[nH]c2ccccc12)C(=O)NCCO)C(C)C)C(C)C` [compound 9910] (For-VGA[dV]A[dV]V[dT]W[dL]W[dV]W[dV]W-NHCH2CH2OH), the “H+/Na+ transport activity normalized” value in data set [1] turned out to be 1.07. Besides, in data set [2], the antibacterial activity entry is on record as “-”. This compound showed a cell viability/% in data set [3] of 100.0%.

As to `CC(C)C[C@@H](NC(=O)[C@H](C)NC(=O)CNC(=O)[C@@H](NC=O)C(C)C)C(=O)N[C@@H](C)C(=O)N[C@@H](C(=O)N[C@H](C(=O)N[C@@H](C(=O)N[C@@H](Cc1c[nH]c2ccccc12)C(=O)N[C@@H](C(=O)N[C@@H](Cc1c[nH]c2ccccc12)C(=O)N[C@@H](C(=O)N[C@@H](Cc1c[nH]c2ccccc12)C(=O)N[C@@H](C(=O)N[C@@H](Cc1c[nH]c2ccccc12)C(=O)NCCO)C(C)C)C(C)C)C(C)C)C(C)C)C(C)C)C(C)C` [compound 9992] (For-VGA[dL]A[dV]V[dV]W[dV]W[dV]W[dV]W-NHCH2CH2OH), in data set [1], the “H+/Na+ transport activity normalized” value is reported as 1.23. Further, in data set [2], the antibacterial activity result is recorded as “+”. The same compound registered a cell viability/% in data set [3] of 100.0%.

Regarding `CNC(=O)C[C@@H](NC(=O)[C@H](Cc1c[nH]c2ccccc12)NC(=O)[C@H](NC(=O)[C@H](Cc1c[nH]c2ccccc12)NC(=O)[C@@H](CC(C)C)NC(=O)[C@H](Cc1c[nH]c2ccccc12)NC(=O)[C@@H](CC(C)C)NC(=O)[C@@H](NC(=O)[C@@H](CC(C)C)NC(=O)[C@H](C)NC(=O)[C@@H](CC(C)C)NC(=O)[C@H](C)NC(=O)CNC(=O)[C@@H](NC=O)C(C)C)C(C)C)C(C)C)C(=O)N[C@@H](Cc1c[nH]c2ccccc12)C(=O)NCCO` [compound 10008] (For-VGA[dL]A[dL]V[dL]W[dL]W[dV]W[dD](NHMe)W-NHCH2CH2OH), the “H+/Na+ transport activity normalized” value in data set [1] was found to be 1.15. In data set [2], the antibacterial activity entry is “-”. The compound also showed a cell viability/% in data set [3] of 100.0%.

As to `CNC(=O)C[C@@H](NC(=O)[C@H](Cc1c[nH]c2ccccc12)NC(=O)[C@@H](CC(C)C)NC(=O)[C@H](Cc1c[nH]c2ccccc12)NC(=O)[C@H](NC(=O)[C@H](Cc1c[nH]c2ccccc12)NC(=O)[C@@H](CC(C)C)NC(=O)[C@@H](NC(=O)[C@H](NC(=O)[C@H](C)NC(=O)[C@@H](CC(C)C)NC(=O)[C@H](C)NC(=O)CNC(=O)[C@@H](NC=O)C(C)C)C(C)C)C(C)C)C(C)C)C(=O)N[C@@H](Cc1c[nH]c2ccccc12)C(=O)NCCO` [compound 10043] (For-VGA[dL]A[dV]V[dL]W[dV]W[dL]W[dD](NHMe)W-NHCH2CH2OH), the “H+/Na+ transport activity normalized” value in data set [1] was 1.09. In addition, the antibacterial activity entry in data set [2] is “-”. Further, the cell viability/% in data set [3] is 56.6%.

Regarding `CC(C)C[C@@H](NC(=O)[C@H](C)NC(=O)[C@H](NC(=O)[C@H](C)NC(=O)CNC(=O)[C@@H](NC=O)C(C)C)C(C)C)C(=O)N[C@H](C(=O)N[C@@H](C(=O)N[C@@H](Cc1c[nH]c2ccccc12)C(=O)N[C@H](CC(C)C)C(=O)N[C@@H](Cc1c[nH]c2ccccc12)C(=O)N[C@@H](C(=O)N[C@@H](Cc1c[nH]c2ccccc12)C(=O)N[C@H](CC(C)C)C(=O)N[C@@H](Cc1c[nH]c2ccccc12)C(=O)NCCO)C(C)C)C(C)C)C(C)C` [compound 10261] (For-VGA[dV]A[dL]V[dV]W[dL]W[dV]W[dL]W-NHCH2CH2OH), the “H+/Na+ transport activity normalized” value in data set [1] was found to be 1.05. Further, in data set [2], the antibacterial activity result is on record as “+”. Further, in data set [3], the cell viability/% came out at 46.3%.

For `CC(C)[C@H](NC=O)C(=O)NCC(=O)N[C@@H](C)C(=O)N[C@@H](C(=O)N[C@@H](C)C(=O)N[C@@H](C(=O)N[C@H](C(=O)N[C@@H](C(=O)N[C@@H](Cc1c[nH]c2ccccc12)C(=O)N[C@@H](C(=O)N[C@@H](Cc1c[nH]c2ccccc12)C(=O)N[C@@H](C(=O)N[C@@H](Cc1c[nH]c2ccccc12)C(=O)N[C@@H](C(=O)N[C@@H](Cc1c[nH]c2ccccc12)C(=O)NCCO)C(C)C)C(C)C)C(C)C)C(C)C)C(C)C)C(C)C)C(C)C` [compound 10276] (For-VGA[dV]A[dV]V[dV]W[dV]W[dV]W[dV]W-NHCH2CH2OH), the “H+/Na+ transport activity normalized” value in data set [1] came to 1.04. The antibacterial activity entry in data set [2] was “+”. Besides, the cell viability/% in data set [3] is reported as 100.0%.

`CC(C)C[C@@H](NC(=O)[C@H](C)NC(=O)CNC(=O)[C@@H](NC=O)C(C)C)C(=O)N[C@@H](C)C(=O)N[C@H](CC(C)C)C(=O)N[C@H](C(=O)N[C@H](CC(C)C)C(=O)N[C@@H](Cc1c[nH]c2ccccc12)C(=O)N[C@H](CC(C)C)C(=O)N[C@@H](Cc1c[nH]c2ccccc12)C(=O)N[C@H](CC(C)C)C(=O)N[C@@H](Cc1c[nH]c2ccccc12)C(=O)N[C@@H](C(=O)N[C@@H](Cc1c[nH]c2ccccc12)C(=O)NCCO)C(C)C)C(C)C` [compound 10340] (For-VGA[dL]A[dL]V[dL]W[dL]W[dL]W[dV]W-NHCH2CH2OH): the “H+/Na+ transport activity normalized” value in data set [1] came out at 1.00. Besides, the antibacterial activity entry in data set [2] is given as “-”. The compound also returned a cell viability/% in data set [3] of 3.4%.

As for `CC(C)C[C@@H](NC(=O)[C@H](C)NC(=O)[C@H](NC(=O)[C@H](C)NC(=O)CNC(=O)[C@@H](NC=O)C(C)C)C(C)C)C(=O)N[C@H](C(=O)N[C@@H](C(=O)N[C@@H](Cc1c[nH]c2ccccc12)C(=O)N[C@@H](C(=O)N[C@@H](Cc1c[nH]c2ccccc12)C(=O)N[C@H](CC(C)C)C(=O)N[C@@H](Cc1c[nH]c2ccccc12)C(=O)N[C@H](CC(C)C)C(=O)N[C@@H](Cc1c[nH]c2ccccc12)C(=O)NCCO)C(C)C)[C@H](C)O)C(C)C` [compound 10367] (For-VGA[dV]A[dL]V[dT]W[dV]W[dL]W[dL]W-NHCH2CH2OH), in data set [1], the “H+/Na+ transport activity normalized” value was found to be 1.00. Moreover, in data set [2], the antibacterial activity result is listed as “-”. Besides, the cell viability/% in data set [3] was 100.0%.
